These compounds were tested against T1, FGFR3 (Homo sapiens, UniProt P22607) (assay: Inhibition of FGFR3 kinase (fluorescence polarization kinase assay)). Conditions: Table 2, class symbols; read-out: FGFR3 IC50.
T1 construct: purchased Upstate Company
Assay type: biochemical
Description: Inhibition activities of kinases of the inventive compounds (test compounds) prepared in the Examples were assessed and represented as IC50 values.
Kinases used in Test Examples 1 to 3 were purchased from Upstate Company.
100 mM HEPES (pH 7.4), 25 mM MgCl2, 10 mM MnCl2 and 250 μM Na3VO4 were mixed to prepare a kinase buffer. Each of kinases to be measured was diluted to a concentration of 25˜300 ng per one reaction according to its activity with the kinase buffer. Also, each of the test compounds was serially diluted to a concentration starting from 100 nM up to 0.1 nM with the kinase buffer. 10 μl of the serially diluted solution of each of the test compounds and 10 μl of the diluted kinase were added to each well of a 96-well microplate, and the plate was incubated at room temperature for 10 mins. 10 μl of a substrate and 10 μl of ATP were successively added thereto to initiate a kinase reaction, and the resulting mixture was incubated at room temperature for 1 hour. The ATP was used in a form of a solution diluted to a concentration determined according to a kinase's Km value with distilled water. 10˜100 ng/mL poly(Glu, Tyr) 4:1 (Sigma) was used as the substrate. 10 μl of 6 mM EDTA was added to each well and stirred for 5 mins to terminate the kinase reaction. For a measurement of phosphorylation degree, 50 μl of a solution containing anti-phosphotyrosine antibody and fluorescein-labeled phosphopeptide was added to the reaction mixture, followed by incubating for 30 mins. The FP (fluorescence polarization) value of each well was determined with a Victor™ D fluorescence meter (Perkin Elmer Lifesciences).
IC50, the concentration at which 50% inhibition occurs, was evaluated based on the difference between the final concentration of the test cells and the initial concentration of the cells incubated in a well not-treated with the test compound which was regarded as 100%. IC50 values of the test compounds on the FGFR kinase were shown in Table 2, and those of the test compound obtained in Example 177 on various kinases, in Table 3.

T1 sequence (P22607 23-806, species assumed): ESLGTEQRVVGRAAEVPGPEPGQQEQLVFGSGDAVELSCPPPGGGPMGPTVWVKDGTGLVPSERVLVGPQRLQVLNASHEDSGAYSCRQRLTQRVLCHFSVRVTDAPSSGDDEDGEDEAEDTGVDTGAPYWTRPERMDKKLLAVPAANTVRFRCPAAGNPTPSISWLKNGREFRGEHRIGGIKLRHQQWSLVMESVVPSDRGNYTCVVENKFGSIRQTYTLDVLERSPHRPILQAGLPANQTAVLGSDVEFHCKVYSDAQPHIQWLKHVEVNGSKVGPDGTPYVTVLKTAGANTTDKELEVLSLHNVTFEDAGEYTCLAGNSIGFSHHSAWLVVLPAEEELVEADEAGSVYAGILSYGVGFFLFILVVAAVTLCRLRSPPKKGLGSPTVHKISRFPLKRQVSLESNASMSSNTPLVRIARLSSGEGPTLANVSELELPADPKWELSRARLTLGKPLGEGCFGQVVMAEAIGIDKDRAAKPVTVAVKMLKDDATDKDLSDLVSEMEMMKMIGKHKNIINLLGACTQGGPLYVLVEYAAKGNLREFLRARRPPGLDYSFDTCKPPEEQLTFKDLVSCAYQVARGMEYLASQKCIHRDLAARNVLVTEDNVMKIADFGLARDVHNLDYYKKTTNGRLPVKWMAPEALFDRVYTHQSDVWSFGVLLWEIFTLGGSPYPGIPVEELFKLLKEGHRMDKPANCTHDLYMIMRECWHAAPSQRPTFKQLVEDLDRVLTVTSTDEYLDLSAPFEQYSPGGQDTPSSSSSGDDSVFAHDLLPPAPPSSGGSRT

`COc1cc(OC)c(Cl)c(NC(=O)c2csc3c(Nc4ccc(CC(=O)N5CCOCC5)cn4)ncnc23)c1Cl` [Example 257, N-(2,6-dichloro-3,5-dimethoxyphenyl)-4-(5-(2-morpholino-2-oxoethyl)pyridin-2-ylamino)thieno[3,2-d]pyrimidine-7-carboxamide] and `COc1cc(OC)c(Cl)c(NC(=O)c2csc3c(Nc4ccc(CN5CCNC(=O)C5)cn4)ncnc23)c1Cl` [Example 263, N-(2,6-dichloro-3,5-dimethoxyphenyl)-4-(5-((3-oxopiperazin-1-yl)methyl)pyridin-2-ylamino)thieno[3,2-d]pyrimidine-7-carboxamide] fall in the same range of IC50: 1 to 100 nM for the first, 1 to 100 nM for the second.

First: COc1cc(OC)c(Cl)c(NC(=O)c2csc3c(Nc4ccc(C(N)=O)cn4)ncnc23)c1Cl [Example 274, 4-(5-carbamoylpyridin-2-ylamino)-N-(2,6-dichloro-3,5-dimethoxyphenyl) thieno[3,2-d]pyrimidine-7-carboxamide]
Second: COc1cc(OC)c(Cl)c(NC(=O)c2csc3c(Nc4ccc(C)cn4)ncnc23)c1Cl [Example 178, N-(2,6-dichloro-3,5-dimethoxyphenyl)-4-(5-methylpyridin-2-ylamino)thieno[3,2-d]pyrimidine-7-carboxamide]
The IC50 of the first is lower: 1 to 100 nM for the first, 100 to 500 nM for the second. The first is the more potent here.

First: COc1cc(OC)c(Cl)c(/C=C/c2csc3c(N)ncnc23)c1Cl [Example 76, 7-(2,6-dichloro-3,5-dimethoxystyryl) thieno[3,2-d]pyrimidine-4-amine]
Second: COc1cc(OC)c(Cl)c(NC(=O)c2csc3c(NC4CC4)ncnc23)c1Cl [Example 168, 4-(cyclopropylamino)-N-(2,6-dichloro-3,5-dimethoxyphenyl) thieno[3,2-d]pyrimidine-7-carboxamide]
The IC50 of the first is higher: 1000 to 5000 nM for the first, 1 to 100 nM for the second. The second is the more potent here.

`COc1cc(OC)c(Cl)c(NC(=O)c2csc3c(Nc4cc(CN5CCSC5)ccn4)ncnc23)c1Cl` [Example 291, N-(2,6-dichloro-3,5-dimethoxyphenyl)-4-(4-(thiazolidin-3-ylmethyl)pyridin-2-ylamino)thieno[3,2-d]pyrimidine-7-carboxamide] and `COc1cc(OC)c(Cl)c(NC(=O)c2csc3c(Nc4cc(NCCN5CCOCC5)ncn4)ncnc23)c1Cl` [Example 208, N-(2,6-dichloro-3,5-dimethoxyphenyl)-4-(6-(2-morpholinoethyl-amino)pyrimidin-4-ylamino)thieno[3,2-d]pyrimidine-7-carboxamide] fall in the same range of IC50: 1 to 100 nM for the first, 1 to 100 nM for the second.

First: CCN1CCN(c2ccc(C(=O)Nc3ncnc4c(C(=O)Nc5c(Cl)c(OC)c(Br)c(OC)c5Cl)csc34)cc2)CC1 [Example 203, N-(4-bromo-2,6-dichloro-3,5-dimethoxyphenyl)-4-(4-(4-ethylpiperazin-1-yl)benzamido)thieno[3,2-d]pyrimidine-7-carboxamide]
Second: CCN1CCN(c2ccc(C(=O)Nc3ncnc4c(C(=O)Nc5c(Cl)c(OC)cc(OC)c5Cl)csc34)cc2)CC1 [Example 204, N-(2,6-dichloro-3,5-dimethoxyphenyl)-4-(4-(4-ethylpiperazin-1-yl)benzamido)thieno[3,2-d]pyrimidine-7-carboxamide]
The IC50 of the first is higher: 1000 to 5000 nM for the first, 100 to 500 nM for the second. The second is the more potent here.

Compared with `COc1cc(OC)c(Cl)c(NC(=O)c2csc3c(Nc4cc(OCCN(C)C)ncn4)ncnc23)c1Cl` [Example 209, N-(2,6-dichloro-3,5-dimethoxyphenyl)-4-(6-(2-(dimethylamino)eth-oxy)pyrimidin-4-ylamino)thieno[3,2-d]pyrimidine-7-carboxamide], `COc1c(Cl)c(NC(=O)c2csc3c(Nc4ccc(F)c(Cl)c4)ncnc23)c(Cl)c(OC)c1Br` [Example 287, N-(4-bromo-2,6-dichloro-3,5-dimethoxyphenyl)-4-(3-chloro-4-fluorophenylamino) thieno[3,2-d]pyrimidine-7-carboxamide] is higher in IC50: 100 to 500 nM for the first, 1000 to 5000 nM for the second.

`COc1cc(NC(=O)c2csc3c(Nc4ccccc4)ncnc23)c2ccoc2c1` [Example 114] and `CCN(CC)CCCCNc1ncnc2c(C(=O)Nc3c(Cl)c(OC)c(Br)c(OC)c3Cl)csc12` [Example 157, N-(4-bromo-2,6-dichloro-3,5-dimethoxyphenyl)-4-(4-(diethylamino)butyl-amino)thieno[3,2-d]pyrimidine-7-carboxamide] fall in the same range of IC50: 1000 to 5000 nM for the first, 1000 to 5000 nM for the second.
